Test results as given in US10575526B2 (priority 2004, dated 2020).

Columns and labels:
[1] = Glyphosate residue analysis in RR soybean; assay type: in vivo; conditions: 3 × 0.75 lb, V3/R1/PH
Excerpt: (§1) The selection of application rates that are effective for a specific plant pathogen is within the skill of the ordinary agricultural scientist. […] Useful application rates for the glyphosate compositions employed can depend upon all of the above conditions.

[2] = Glyphosate residue analysis in RR corn (GA21); assay type: in vivo; conditions: 2 × 0.75 lb
Excerpt: as §1

[3] = Glyphosate residue analysis in RR canola; assay type: in vivo; conditions: 0.8 lb, seed
Excerpt: as §1

[4] = Glyphosate residue analysis in RR rice; assay type: in vivo
Excerpt: as §1

[5] = Glyphosate residue analysis in RR wheat; assay type: in vivo
Excerpt: as §1

[6] = Glyphosate residue analysis in RR sugarbeet; assay type: in vivo
Excerpt: as §1

[7] = Glyphosate residue analysis in RR potato; assay type: in vivo; conditions: tubers
Excerpt: as §1

Septoria = assay: In vitro fungal cell growth on media containing glyphosate; assay type: cell-based; conditions: crop of interest Wheat
Phytophthora = assay: as above; assay type: cell-based; conditions: crop of interest Potato/soy
Rhizoctonia = assay: as above; assay type: cell-based; conditions: crop of interest Wheat/potato
Fusarium = assay: as above; assay type: cell-based; conditions: crop of interest Wheat/potato
Gaeumannomyces = assay: as above; assay type: cell-based; conditions: crop of interest Wheat
Puccinia = assay: as above; assay type: cell-based; conditions: crop of interest Wheat
Pyricularia = assay type: cell-based; conditions: growth media, crop of interest Rice
Puccinia spores [8] = assay: Tissue glyphosate concentration and disease prevention in glyphosate tolerant wheat; assay type: in vivo
Method: Four different regimens are employed. […] The inoculated plants are then incubated for 24 hours at 100% relative humidity for germination of the spores. […] Disease conditions are evaluated macroscopically for pustule development and lesion development.

Puccinia spores [9] = assay: Translocation of glyphosate to shielded wheat leaf for leaf rust prevention; assay type: in vivo
Excerpt: In the data shown in FIG. 1, the top fully expanded wheat leaf was shielded from Roundup® spray (0-1×, 1× at 0.75 lb ae/a) followed by inoculation of wheat rust spores to the shielded leaf at 1 day after treatment (DAT).
14C-glyphosate is sprayed over-the-top to wheat plants using field application conditions and use rates. The top fully-expanded leaf (one leaf) is shielded from the spray (the untreated leaf).

rust spores = assay: Glyphosate as post-infection treatment of glyphosate tolerant wheat; assay type: in vivo; conditions: evaluated 11 DAI
Method: Depending on the treatment to be used, the spores are then allowed to germinate. […] Disease incidence is evaluated 11 DAI.

[10] = test system: Asian soybean rust (Phakopsora pachyrhizi); assay: Field observation of Asian soybean rust in glyphosate tolerant soybean; assay type: in vivo; conditions: Brazil
Method: Asian soybean rust is an aggressive foliar disease of soybean that occurs where soybeans are grown in Asia, and more recently, in southern Africa, Paraguay, Argentina and Brazil. Phakopsora pachyrhizi, the fungus that causes Asian soybean rust, has been found in the continental United States. Glyphosate compositions are used to control, prevent or treat disease in glyphosate tolerant soybean plants (RR) under field conditions. A single application rate of Roundup® (1×=0.75 lbs ae/acre or 0.84 kg ae/ha) or multiple applications are applied times to a rust susceptible variety of soybean. The Roundup® treated plants are not treated with any fungicide and allowed to be naturally infected with Asian soybean rust. In addition, glyphosate-tolerant soybean plants can be grown in a greenhouse and manually infected with spores to induced disease infection.
Rust development is delayed 7-10 days in RR soybean (sprayed at ˜V4 stage), as compared to conventional soy. Rust severity is less in RR soybean as compared to conventional soybean in early season observations.

[11] = test system: Common rust or Southern rust spores (Puccinia sorghi, Puccinia polysora); assay: Field tests of glyphosate on rust diseases of Roundup Ready corn nk603; assay type: in vivo; conditions: 1 to 9 scale
[12] = test system: Verticillium wilt (Verticillium dahliae); assay: Verticillium wilt control in Roundup Ready cotton; assay type: in vivo; conditions: three genetic backgrounds, 22 ounces of WeatherMax Roundup at two and five true leaf stage, observed about three and four months after planting, versus adjacent untreated plot
Excerpt: The cotton seeds were planted and the emerged plants were sprayed with 22 ounces of WeatherMax Roundup® at the two and five true leaf stage. […] The treated plants continued to grow compared to the untreated plants that had shut down. […] Cotton plants suffering from other wilt diseases of cotton, especially Fusarium wilt disease, are expected to benefit from treatment with glyphosate.

corn EPSPS = assay: Kinetic studies of EPSPS inhibition by glyphosate; assay type: biochemical; conditions: equivalent of 0.5 μM
Excerpt: Structural studies of EPSPS based on X-ray crystallography have identified key amino acids involved in catalysis.

O=C(O)CNCP(=O)(O)O [glyphosate, N-phosphonomethylglycine]
Gly (ppm) ([1]; forage): 7.60 ppm | Gly (ppm) ([1]; hay): 1.30 ppm | Gly (ppm) ([1]; seed): 0.80 ppm | Gly (ppm) ([2]; V4/V8, forage): 0.73 ppm | Gly (ppm) ([2]; V4/V8, grain): 0.07 ppm | Gly (ppm) ([2]; V4/V8, stover): 1.30 ppm | Gly (ppm) [3]: 0.02 ppm | Gly (ppm) ([4]; 1.5 lb 5 lf, grain): 0.05 ppm | Gly (ppm) ([4]; 1.5 lb 5 lf, straw): 0.05 ppm | Gly (ppm) ([4]; 2 × 1.12 lb, 5 lf/pan ini, grain): 3.00 ppm | Gly (ppm) ([4]; 2 × 1.12 lb, 5 lf/pan ini, straw): 3.10 ppm | Gly (ppm) ([4]; 3 × 1.12 lb, 5 lf/pan ini/PH, grain): 14.80 ppm | Gly (ppm) ([4]; 3 × 1.12 lb, 5 lf/pan ini/PH, straw): 6.90 ppm | Gly (ppm) ([5]; 0.75 lb, 4 lf, forage): 2.30 ppm | Gly (ppm) ([5]; 0.75 lb, 4 lf, grain): 0.50 ppm | Gly (ppm) ([5]; 0.75 lb, 4 lf, hay): 1.20 ppm | Gly (ppm) ([5]; 0.75 lb, 4 lf, straw): 0.50 ppm | Gly (ppm) ([5]; 2 × 0.75 lb, 4 lf/Preboot, forage): 2.60 ppm | Gly (ppm) ([5]; 2 × 0.75 lb, 4 lf/Preboot, grain): 7.50 ppm | Gly (ppm) ([5]; 2 × 0.75 lb, 4 lf/Preboot, hay): 13.00 ppm | Gly (ppm) ([5]; 2 × 0.75 lb, 4 lf/Preboot, straw): 5.30 ppm | Gly (ppm) ([6]; 3 × 0.75, 2 lf/12 lf/12 lf + 30 d, beet): 6.60 ppm | Gly (ppm) ([6]; 3 × 0.75, 2 lf/12 lf/12 lf + 30 d, tops): 4.30 ppm | Gly (ppm) ([6]; 3 × 0.75 lb, 2 lf/6 lf/12 lf, beet): 0.50 ppm | Gly (ppm) ([6]; 3 × 0.75 lb, 2 lf/6 lf/12 lf, tops): 0.40 ppm | Gly (ppm) ([7]; 2 × 1.5 lb, 2 lf/row closure): 4.10 ppm | Gly (ppm) ([7]; 3 × 1.5 lb, 2 lf/row clo/PH): 8.60 ppm | In vitro EC90, ppm (Septoria): <100 ppm | In vitro EC90, ppm (Phytophthora): 1000 ppm | In vitro EC90, ppm (Rhizoctonia): 1000 ppm | In vitro EC90, ppm (Fusarium): 1000 ppm | In vitro EC90, ppm (Gaeumannomyces): 1000 ppm | In vitro EC90, ppm (Puccinia): 5000 ppm | In vitro EC90, ppm (Pyricularia): 5000 ppm | pustule development (Puccinia spores [8]; 12 days after inoculation, wheat treated with 1× spray, inoculated 1 day or 14 days after treatment, controls about 25% to about 30%): less than 1% | tissue concentration of glyphosate at which pustule development is prevented (Puccinia spores [8]; glyphosate tolerant wheat leaf): about 10 ppm | tissue glyphosate at which complete disease prevention was attained (Puccinia spores [9]; shielded (untreated) wheat leaf, spray application of ½× of Roundup, inoculated 1DAT): 1.3 ppm | disease incidence versus spray dose (Puccinia spores [9]; shielded wheat leaf, 11 days after inoculation, 0-1× spray): decrease in disease incidence with an increase in spray dose | development of pustules (rust spores; 1× glyphosate at 4DAI, lesions already present at treatment): no development of pustules | infection level (rust spores; wheat 3-leaf stage, 1× glyphosate after inoculation, untreated/surfactant between 10% and about 25%): either no infection or no progression to an existing infection | rust severity ([10]; RR soybean compared to conventional soybean, early season observations): less | delay of rust development ([10]; RR soybean sprayed at ~V4 stage, compared to conventional soy): 7 to 10 days | average disease rating ([11]; hybrid corn, treatment #1 (pre-inoculation), 2× rate (1.5 lb./A), 1=resistant, 9=susceptible, control 4.1): 3.6 | disease rating ([11]; hybrid corn, treatment #1 (pre-inoculation), 3× rate (2.25 lb./A), control 4.1): 3.0 | disease rating ([11]; hybrid corn, treatment #2 (14 days post inoculation), control 4.1): 4.1 | disease rating ([11]; hybrid corn, treatment #3 (28 days post inoculation), control 4.1): 3.9 | disease rating ([11]; inbred corn, post inoculation treatments, second value): 4.9 | disease rating ([11]; inbred corn, post inoculation treatments): 4.4 | average disease rating ([11]; inbred corn, treatment #1 (pre-inoculation), 2× rate, controls 5.0 and 4.9): 4.0 | average disease rating ([11]; inbred corn, treatment #1 (pre-inoculation), 3× rate, controls 5.0 and 4.9): 3.2 | wilt symptoms [12]: reduced symptoms | Ki expressed as glyphosate in plant tissues (corn EPSPS): approximately 0.15 ppm
